Data: patent publication US20050282887A1, “Novel sulfamate and sulfamide derivatives useful for the treatment of epilepsy and related disorders” (priority 2004, published 2005)
Values belong to the compound of their own block, whether it stands above or below them.

Tests used:
[1] = test system: CF-1 male albino mice; assay: Maximal Electroshock Test (MES), anticonvulsant activity; format: in vivo
Protocol: Anticonvulsant activity was determined using the MES test, run according to the procedure described in detail below. Swinyard E A, Woodhead J H, White H S, Franklin M R. Experimental selection, quantification, and evaluation of anticonvulsants. In Levy R H, et al., eds. Antiepileptic Drugs. 3rd ed. New York: Raven Press, 1989:85-102
CF-1 male albino mice (25-35 g) were fasted for 16 hours before testing. Mice were randomly selected into control and test groups, with the animals dosed with vehicle or test compound, at varying concentrations, respectively. On the study date, at 30 minutes prior to shock, the mice were orally dosed with vehicle (0.5% methylcellulose) or test compound (100-300 mg/kg). Seizures were induced by trans-corneal electric shock using a 60-Hz alternating current, 50 mA, delivered for 0.2 sec. The mice in the test groups were subjected to electrical stimulus at time intervals between 15 minutes and 4 hours following administration of test compound. […] The test was complete when the entire course of the convulsion has been observed (typically, less than 1 minute after electrical stimulation), and the mice were then immediately euthanized by carbon dioxide inhalation.
Abolition of the full body tonic extensor component of the seizure was taken as the endpoint of the test. […] The ED50 value of the test compound (calculated when appropriate) was the calculated dose required to block the hind limb tonic-extensor component of the MES-induced seizure in 50% of the rodents tested. A probit analysis was used to calculate the ED50 and 95% fiducial limits (FL).
Representative compounds of the present invention were tested according to the procedure described above, with results as listed in Table 4 below. Results are listed as number of mice with full body tonic extension prevented/total number of mice tested @ a given time (at a given test compound dosage level).

[2] = test system: carbonic anhydrase; conditions: cited from earlier work

Compound: NS(=O)(=O)NCC1COc2ccccc2O1 (racemic) [Compound #1, N-(2,3-Dihydro-benzo[1,4]dioxin-2-ylmethyl)-sulfamide]
- MES Activity: number of mice with full body tonic extension prevented/total number of mice tested ([1]; @ 1 h, 300 mg/kg oral): 2/4 @ 1 h (300 mg/kg)

- melting point: 76 to 78 °C
Compound: CN(C)S(=O)(=O)NCC1COc2ccccc2O1 (racemic) [Compound #6, N-(2,3-Dihydro-benzo[1,4]dioxin-2-ylmethyl)-N′,N′ dimethylsulfamide]
- MES Activity: number of mice with full body tonic extension prevented/total number of mice tested ([1]; @ 0.5 h, 300 mg/kg oral): 4/5 @ 0.5 h (300 mg/kg)

- melting point: 97 to 98 °C
Compound: CN(CC1COc2ccccc2O1)S(N)(=O)=O (racemic) [Compound #7, N-(2,3-Dihydro-benzo[1,4]dioxin-2-ylmethyl)-N-methylsulfamide]
- MES Activity: number of mice with full body tonic extension prevented/total number of mice tested ([1]; @ 0.5 h, 300 mg/kg oral): 3/3 @ 0.5 h (300 mg/kg)

Compound: NS(=O)(=O)NCC1Oc2ccccc2O1 [Compound #2, (Benzo[1,3]dioxol-2-ylmethyl)sulfamide]
- MES Activity: number of mice with full body tonic extension prevented/total number of mice tested ([1]; @ 2 h, 100 mg/kg oral): 4/4 @ 2 h (100 mg/kg)

Compound: NS(=O)(=O)NCC1COc2ccccc2OC1 [Compound #3, ((3,4-Dihydro-2H-benzo[b][1,4]dioxepin-3-yl)methyl)sulfamide]
- MES Activity: number of mice with full body tonic extension prevented/total number of mice tested ([1]; @ 1 h, 300 mg/kg oral): 2/3 @ 1 h (300 mg/kg)

Compound: NS(=O)(=O)NC[C@H]1COc2ccccc2O1 [Compound #4, (2S)-(−)-N-(2,3-Dihydro-benzo[1,4]dioxin-2-ylmethyl)-sulfamide]
- MES Activity: number of mice with full body tonic extension prevented/total number of mice tested ([1]; @ 1 h, 300 mg/kg oral): 5/5 @ 1 h (300 mg/kg)

Compound: NS(=O)(=O)NC[C@H]1COc2cc(Cl)ccc2O1 [Compound #8, (2S)-(−)-N-(6-Chloro-2,3-dihydro-benzo[1,4]dioxin-2-ylmethyl)-sulfamide]
- MES Activity: number of mice with full body tonic extension prevented/total number of mice tested ([1]; @ 3 h, 100 mg/kg oral): 3/5 @ 3 h (100 mg/kg)

- melting point: 100 to 101 °C
Compound: NS(=O)(=O)NCC1CCc2ccccc2O1 (stereo not drawn) [Compound #10, Chroman-2-ylmethylsulfamide]
- MES Activity: number of mice with full body tonic extension prevented/total number of mice tested ([1]; @ 1 h, 100 mg/kg oral): 1/5 @ 1 h (100 mg/kg)

- melting point: 87 to 90 °C
Compound: NS(=O)(=O)OCC1CCc2ccccc2O1 (stereo not drawn) [Compound #11, Chroman-2-ylmethylsulfamate]

- melting point: 113 to 116 °C
Compound: NS(=O)(=O)OC[C@H]1COc2cc(Cl)ccc2O1 [Compound #12, Sulfamic acid, 6-chloro-2,3-dihydro-benzo[1,4]dioxin-2-ylmethyl ester]
- MES Activity: number of mice with full body tonic extension prevented/total number of mice tested ([1]; @ 4 h, 100 mg/kg oral): 3/5 @ 4 h (100 mg/kg)

- melting point: 101 to 103 °C
Compound: NS(=O)(=O)NCCC1COc2ccccc2O1 (stereo not drawn) [Compound #16, 2-(2,3-Dihydro-benzo[1,4]dioxin-2-yl)-ethylsulfamide]
- MES Activity: number of mice with full body tonic extension prevented/total number of mice tested ([1]; @ 0.5 h, 300 mg/kg oral): 5/5 @ 0.5 h (300 mg/kg)

Compound: Cc1ccc2c(c1)O[C@@H](CNS(N)(=O)=O)CO2 [Compound #19, (2S)-(−)-N-(7-Methyl-2,3-dihydro-benzo[1,4]dioxin-2-ylmethyl)-sulfamide]
- MES Activity: number of mice with full body tonic extension prevented/total number of mice tested ([1]; @ 0.5 h, 300 mg/kg oral): 5/5 @ 0.5 h (300 mg/kg)

- melting point: 119 to 121 °C
Compound: NS(=O)(=O)NC[C@H]1COc2cc(Cl)c(Cl)cc2O1 [Compound #29, (2S)-(−)-N-(6,7 Dichloro-2,3-dihydro-benzo[1,4]dioxin-2-ylmethyl)-sulfamide]
- MES Activity: number of mice with full body tonic extension prevented/total number of mice tested ([1]; @ 4 h, 100 mg/kg oral): 3/5 @ 4 h (100 mg/kg)

Compound: Nc1ccc2c(c1)O[C@@H](CNS(N)(=O)=O)CO2 [Compound #36, (2S)-(−)-N-(7-Amino-2,3-dihydro-benzo[1,4]dioxin-2-ylmethyl)-sulfamide]
- MES Activity (result in words) ([1]; @ 100 and 300 mg/kg oral): Inactive @ 100 and 300 mg/kg

Compound: CC1(C)O[C@@H]2[C@@H](CO[C@@]3(COS(N)(=O)=O)OC(C)(C)O[C@@H]23)O1 [Topiramate]
- carbonic anhydrase inhibition [2]: single digit micromolar

Compound: NS(=O)(=O)NC[C@H]1COc2ccc(Cl)cc2O1 [compound 14, (2S)-(−)-N-(7-Chloro-2,3-dihydro-benzo[1,4]dioxin-2-ylmethyl)-sulfamide]
- MES Activity: number of mice with full body tonic extension prevented/total number of mice tested ([1]; @ 4 h, 100 mg/kg oral): 3/5 @ 4 h (100 mg/kg)

Compound: NS(=O)(=O)NC[C@H]1COc2ccc([N+](=O)[O-])cc2O1 [compound 18, (2S)-(−)-N-(2,3-Dihydro-7-nitro-benzo[1,4]dioxin-2-ylmethyl)-sulfamide]
- MES Activity (result in words) ([1]; @ 100 mg/kg oral): Inactive @ 100 mg/kg

Compound: Sulfamic acid, 6,7 dichloro-2,3-dihydro-benzo[1,4]dioxin-2-ylmethyl ester [Compound #27]
- MES Activity: number of mice with full body tonic extension prevented/total number of mice tested ([1]; @ 4 h, 100 mg/kg oral): 5/5 @ 4 h (100 mg/kg)
